Measured values published in patent publication US20090247520A1, “INHIBITORS OF ANTIGEN RECEPTOR-INDUCED NF-kappa B ACTIVATION” (The Burnham Institute for Medical Research, priority 2008, published 2009).
“Also recorded” adds a separate entry of the source.

Tests used:
[1] = test system: caspase-8 p43/41 processing intermediate; test: Caspase-8 p43/41 processing in HEK293 cells after PMA/Ion; assay type: cell-based; conditions: data not shown
Excerpt: Caspase-8 plays an essential role in antigen receptor-mediated NF-κB activation. It was recently reported that MALT1 interacts with Caspase-8 and activates this protease upon antigen receptor activation. […] We then examined if CID-2858522 affected the pathway at this point. PMA induced significant MALT1-caspase-8 interaction in HEK293 cells over-expressing Flag-MALT1 and Caspase-8. […] The caspase-8 p43/41 processing intermediate was generated in HEK293 cells after PMA/Ion treatment. […] We then assessed the effects of CID-2858522 on PMA-induced proteolytic processing of c-FLIP, a Caspase-8-mediated event recently shown to be required for antigen receptor mediated NF-κB activation.

353 protein kinases = test: KINOMEscan kinome screen, panel of 353 protein kinases; assay type: binding, human; conditions: 10 μM, of 353 protein kinases surveyed
Excerpt: CID-2858522 is not a potent protein kinase inhibitor. Protein kinases play critical roles in NF-κB activation. PKCs are proximal kinases in the NF-κB pathways activated by PMA/Ionomycin and by T- and B-cell antigen receptors, while the IKKs are distal kinases operating in the terminal segments of these and other NF-κB activation pathways. We therefore tested whether CID-2858522 inhibits members of these kinase families by in vitro kinase assays. For these experiments, we tested PKC-beta and PKC-theta (the PKC family members implicated in TCR/BCR signaling), and IKK-beta (a component of the IKK complex) (FIG. 6). […] In addition to assessing these three kinases by conventional in vitro kinase assays, a kinome screen was performed using a high throughput screening method, KINOMEscan™, which is an active-site dependent competition binding assay in which human kinases of interest are fused to a proprietary tag (Ambit). The amount of kinase bound to an immobilized, active-site directed ligand is measured in the presence and absence of the test compound. […] Thus, CID-2858522 inhibits none of the protein kinases previously implicated in regulating NF-κB.
In Vitro Kinase Assays. PKC-beta, PKC-theta and IKK-beta in vitro kinase assays were performed using the HTScan Kinase Assay Kit (Cell Signaling, Danvers, Mass.) according to manufacturer's protocols. […]

[2] = test system: p65-DNA binding activity induced by TNF; test: NF-κB p65 DNA-binding activity induced by TNF; assay type: cell-based; conditions: data not shown
Protocol: NF-κB DNA-binding activity assays. Nuclear extracts were prepared from 10 cm^2 plates of confluent cells using a kit (Active Motif, Carsbad, Calif.). The total protein content of nuclear fractions was quantified by the Bradford method, followed by storage at −80° C. NF-κB DNA-binding activity was measured in nuclear extracts (10 μg protein) using an immunoassay method (TransAM Kit [Active Motif]) employing 96 well plates coated with double-strand oligodeoxynucleotides containing NF-κB consensus binding site (5′-[…]-3′) and anti-p65 antibody, which was detected by secondary horseradish peroxidase (HRP)-conjugated antibody, using a calorimetric substrate with absorbance read at 450 nm within 5 minutes using a spectrophotometer, SpectraMax M5 (Molecular Devices, Sunnyvale, Calif.).

p65-DNA binding activity = p65-DNA binding activity in anti-IgM-stimulated CLL B-cells; assay type: cell-based; conditions: human CLL B-cells
Protocol: (A) Isolated mouse primary splenocytes were cultured with anti-CD3/anti-CD28 (0.3 μg/mL each) or anti-IgM (3 μg/mL) for 48 h, then 1 μCi 3H-Thymidine was added for 12 h and incorporation into DNA was measured, expressing data as fold increase above unstimulated cells (mean±SD; n=3). (B-D) Primary splenocytes were pretreated for 2 h with IKK inhibitor, BMS-335541 (B), PKC inhibitor, Bisindolylmaleimide I (C) or CID-2858522 (D), then stimulated with anti-CD3/anti-CD28 (0.3 μg/mL) or anti-IgM (3 μg/mL) for 48 h. 1 μCi 3H-Thymidine was added for 12 h and incorporation into DNA was measured, expressing data as percent inhibition relative to control cells treated with DMSO (mean±SD; n=3). […] Levels of TRAF1 and β-actin were assessed by immunoblotting, quantified by densitometry and TRAF1 results reported relative to control cells, after normalization for β-actin (mean±SD). […] Then nuclear extracts were prepared and p65-DNA-binding activity was measured (mean±SD; n=3).
NF-κB DNA-binding activity assays. Nuclear extracts were prepared from 10 cm^2 plates of confluent cells using a kit (Active Motif, Carsbad, Calif.). The total protein content of nuclear fractions was quantified by the Bradford method, followed by storage at −80° C. […]

[3] = test system: γ-TriDAP (NOD1 agonist) stimulated IL-8 production; test: IL-8 production by MCF7 cells stimulated with γ-TriDAP; assay type: cell-based; conditions: listed as CID-2858522
Excerpt: FIG. 1 is a flow chart of screening and counter-screenings for selective inhibitors of antigen-receptor induced NF-κB pathway. A total of 114,889 compounds were screened. From a screen of 53,280 commercially available compounds (left column), 519 hits were obtained, of which 248 reconfirmed using the same primary screening assay. […] From these 11 active compounds, one hit, CID-2858522, inhibited PMA/Ionomycin-induced production of cytokine IL-8 by the HEK293 cell line. CID-2858522 was then characterized (right column). PDB was substituted for PMA to confirm suppression of an alternative PKC activator. Pathway selectivity was assessed using panels of cell lines, starting with HEK293 cells in which each of the remaining NF-κB activation pathways was stimulated, showing inhibition only of PMA/Ionomycin-induced NF-κB reporter gene activity (panel 1). […]

HEK293 cells = test: Cell viability assay (ATPlite), HEK293 cells; assay type: cell-based
Protocol: Cell viability assay. Cell viability was estimated based on cellular ATP levels, measured using ATPlite kit (Perkin Elmer). Cells at a density of 10^5/mL were seeded at 90 μL per well in 96-well white plates and cultured overnight. Compounds were added (5 μL in medium) to wells and cells were cultured for […], Finally, 50 μL ATPlite solution was added to each well and luminescence activity was read using a luminometer (LJL Biosystems, Sunnyvale, Calif.).

`CN(C)CCCn1cc(C2=C(c3c[nH]c4ccccc34)C(=O)NC2=O)c2ccccc21` [Bisindolylmaleimide I, reference compound] was tested, and the “inhibition of caspase-8 p43/41 processing intermediate” value [1] was “inhibited”.
For `Cc1cc2nc(NCCCO)n(CC(=O)c3cc(C(C)(C)C)c(O)c(C(C)(C)C)c3)c2cc1C` [Compound 1, 2-(2-(3-Hydroxypropylamino)-5,6-dimethyl-1H-benzo[d]imidazol-1-yl)-1-(3,5-di-tert-butyl-4-hydroxyphenyl)ethanone], the “number of protein kinases suppressed by >50%” value (353 protein kinases) was 3, the “block of p65-DNA binding activity induced by TNF” value [2] was “did not block” and the “suppression of anti-IgM-induced p65-DNA binding activity” value (p65-DNA binding activity) was “direct suppression”. The “suppression of IL-8 production, γ-TriDAP-stimulated MCF7” value [3] was “failed to inhibit; also recorded: did not suppress” and the “concentrations not toxic to HEK293 cells” value (HEK293 cells) was ≤ 8 µM.
